The results in this text go back to publication PMC9501633, “Synthesis, Characterisation and Mechanism of Action of Anticancer 3-Fluoroazetidin-2-ones” (Pharmaceuticals, 2022).

Assay [1] relates to Hs578T cells. Nature of the assay: AlamarBlue cell viability assay. The format is cell-based. The settings on record: Homo sapiens, Hs-578T. The protocol:
(§1) The potent 3-fluoro-β-lactam compound 33 synthesised was also evaluated in the triple-negative MDA-MB-231 cell line which lacks expression of the estrogen and progesterone receptors (ER/PR) and the HER2 receptor. […]. Compound 32 was also evaluated in the triple-negative breast cancer cell line Hs578T and its isogenic subclone Hs578T(i)8 (Figure 4C). Hs578Ts(i)8 cells have 2.5-fold more migratory capacity and 3-fold more invasive capacity through the extracellular matrix than the parental cell line (Hs578T) and have 30% more CD44+/CD24-/low cells and in vivo proliferation. […]. The human breast carcinoma cell lines MCF-7 and MDA-MB-231 were purchased from the European Collection of Animal Cell Cultures (ECACC, Salisbury, UK). The SW-480 cells were a kind gift from Dr. Brian Flood, School of Biochemistry and Immunology, Trinity College Dublin. The human breast tumour cell line MCF-7 was cultured in Eagles minimum essential medium with 10% foetal bovine serum, 2 mM L-glutamine and 100 μg/mL penicillin/streptomycin. The medium was supplemented with 1% non-essential amino acids. The human breast tumour cell line MDA-MB-231 cells were maintained in Dulbecco’s modified Eagle’s medium (DMEM) with the addition of penicillin/streptomycin (100 µg/mL), 10% (v/v) foetal bovine serum and 2 mM L-glutamine (complete medium). Breast cancer cell line Hs578T and its isogenic subclone Hs578T(i)8 were a kind gift from Dr. Susan McDonnell, School of Chemical and Bioprocess Engineering, University College Dublin. SW-480 cells, triple-negative breast cancer Hs578T cells and invasive variant Hs578T8i cells were cultured in DMEM with GlutaMAX-I, with the same supplement in the absence of non-essential amino acids. HEK-293T cells (normal epithelial embryonic kidney cells) were cultured in DMEM with GlutaMAX-I in the absence of non-essential amino acids. The SW-480 cells were cultured in DMEM with GlutaMAX-I, with the same supplement in the absence of non-essential amino acids. All media contained 100 U/mL penicillin and 100 μg/mL streptomycin. The cells were seeded into pre-warmed complete medium (10 × 10^4 cells/mL) and maintained at a cell density of 2–19 × 10^5 cells /mL by the addition of fresh media. The cell number was monitored using a haemocytometer. Cells were maintained at 37 °C in 5% CO2 in a humidified incubator. […]
(§2) Figure 4 Antiproliferative activity of 3-fluoro β-lactams on MCF-7, MDA-MB-231, Hs578T and Hs578T isogenic subclone Hs578T(i)8 breast cancer cells and non-tumourigenic HEK-293T cells. […] Cell viability was expressed as a percentage of vehicle control (ethanol 1% (v/v))-treated cells. […] Cell viability was expressed as a percentage of vehicle control (ethanol 1% (v/v))-treated cells and was measured by AlamarBlue assay (average of three independent experiments). […]
Background: The colour change of resazurin is a common sign of viable cells or microbes.

Assay [2] concerns Hs578Ts(i)8 cells. In words: AlamarBlue cell viability assay. The class given is cell-based. On the procedure:
as §1, §2

For assay [3], the system named is purified bovine brain tubulin. In words: Tubulin polymerisation assay (turbidimetric, 340 nm). The class given is biochemical. The protocol:
Tubulin polymerisation was investigated using a turbidimetric assay which determines the light scattering by microtubules (absorbance at 340 nm) that is proportional to the microtubule polymer concentration.
Tubulin polymerisation was monitored with purified bovine tubulin using the BK006 kit supplied by Cytoskeleton Inc. (Denver, CO, USA), carried out following the manufacturer’s instructions with the standard assay conditions. Purified (>99%) bovine brain tubulin (3 mg/mL) in a buffer containing PIPES (80 mM, pH 6.9), EGTA (0.5 mM), MgCl2 (2 mM), GTP (1 mM) and glycerol (10%) was incubated at 37 °C in the presence of either vehicle (2% (v/v) ddH2O) or paclitaxel (10 µM), CA-4 (10 μM) or 33 (10 and 30 µM). The effect on tubulin assembly was monitored turbidimetrically at 340 nm in a Spectramax 340 PC spectrophotometer (Molecular Devices, Sunnyvale, CA, USA), with the light scattered depending on the concentration of polymerised microtubules formed. The absorbance was measured at 30 s intervals for 60 min.
Figure 7 Effect of β-lactam compound 33 (10 and 30 µM) and paclitaxel (10 µM) on in vitro tubulin polymerisation. Purified bovine tubulin and GTP were mixed in a 96-well plate. Compounds were added and the reaction was started by warming the solution from 4 to 37 °C. Ethanol (1% v/v) was used as a vehicle control. The effect on tubulin assembly was monitored in a Spectramax 340PC spectrophotometer at 340 nm at 30 s intervals for 30 min at 37 °C. […] Each experiment was performed in duplicate.

For `COc1ccc(/C=C\c2cc(OC)c(OC)c(OC)c2)cc1O` [CA-4, combretastatin A-4, reference compound], the IC50 in assay [1] stood at 8 nM; in assay [2], 20 nM.
`COc1ccc(C2C(F)C(=O)N2c2cc(OC)c(OC)c(OC)c2)cc1F` (centres unmarked) [Compound 33, 3-Fluoro-4-(3-fluoro-4-methoxyphenyl)-1-(3,4,5-trimethoxyphenyl)azetidin-2-one]: the “reduction in the Vmax of tubulin polymerisation compared to the vehicle” value turned out to be 3.5 fold in assay [3] (10 μM) and 4 fold in assay [3] (30 µM). Besides, the “effect on tubulin polymerisation” value in assay [3] (paclitaxel 10 µM, 33 10 and 30 µM) was “inhibited tubulin polymerisation”.

In general, IC50 refers to the concentration that inhibits the measured activity by half. Higher therefore signals lower potency.
